The source of these data is the RepoRT retention time repository.

This series is described as follows: HILIC, Waters ACQUITY UPLC BEH Amide, 100 × 2.1 mm, 1.7 µm; A: water + 0.125% formic acid + 10 mM ammonium formate; B: 5% water + 95% acetonitrile + 0.125% formic acid + 10 mM ammonium formate; gradient (min/%B) 0/100 2/100 7.7/70 9.5/40 10.25/30 12.75/100 17/100. Particulars: stereoisomer not certain.
`CCCC(=O)OCC` [Ethylbutanoate]: the LC retention time stood at 4.88 min.
Take `COc1cc(-c2[o+]c3cc(O)cc(O)c3cc2OC2OC(CO)C(O)C(O)C2O)cc(O)c1O` (configuration not stated) [Petunidin-3-glucoside]: the LC retention time came to 4.47 min.
For `CCC1(O)CC2CN(CCc3c([nH]c4ccccc34)C(C(=O)OC)(c3cc4c(cc3OC)N(C=O)C3C(O)(C(=O)OC)C(OC(C)=O)C5(CC)C=CCN6CCC43C65)C2)C1` (configuration not stated) [Vincristine] the value was 3.7 min.
`NCCCCC(=O)O` [5-Aminovaleric acid]: the LC retention time was determined as 7.24 min.
For `Cc1c(O)cccc1C(=O)NC(CSc1ccccc1)C(O)CN1CC2CCCCC2CC1C(=O)NC(C)(C)C` (configuration not stated) [Nelfinavir] the value was 1.55 min; for `CC(COc1ccccc1Cc1ccccc1)N1CCCCC1` (configuration not stated) [Benproperine], 1.99 min.
For `NCCc1ccc(O)c(O)c1` [Dopamine] the value was 6.4 min.
For `O=P(O)(O)OCC(O)C(O)C(O)C(O)CO` (configuration not stated) [Sorbitol-6-phosphate] the value was 9.75 min; for `CC(CCCCC(=O)Nc1ccc(C(F)(F)F)cc1)NCCc1cnc[nH]1` (configuration not stated) [Histamine-trifluoromethyltoluide], 5.3 min.
As for `COc1ccc2c(c1OC)C(=O)OC2C1c2c(cc3c(c2OC)OCO3)CCN1C` (configuration not stated) [Noscapine], the LC retention time was 1.31 min.
For `COCCCCC(=NOCCN)c1ccc(C(F)(F)F)cc1` [Fluvoxamine] the value was 2.93 min.
For `N=c1ccc2nc3ccc(N)cc3sc-2c1` [Thionin] the value was 5.23 min; for `O=C1Nc2ccc(Cl)cc2C(c2ccccc2)=NC1O` (configuration not stated) [Oxazepam], 1.37 min; for `CC(=O)OCC=C(C)CCC=C(C)C` [Nerylacetate], 0.99 min.
For `COc1ccc2c3c1OC1C(=O)CCC4C(C2)N(C)CCC314` (configuration not stated) [Hydrocodone] the value was 3.8 min; for `CC(O)C(NC(=O)C(N)CCC(=O)O)C(=O)O` (configuration not stated) [Glu-Thr], 9.44 min; for `CN(CCOc1ccc(CC2SC(=O)NC2=O)cc1)c1ccccn1` (configuration not stated) [Rosigltazone], 1.24 min.
`CN1CCC(=C2c3ccccc3C=Cc3ccccc32)CC1` [Cyproheptadine]: the LC retention time came out at 2.31 min.
For `CC(=O)Oc1ccc2c(C)cc(=O)oc2c1` [4-Methylumbelliferyl acetate] the value was 1.06 min; for `Nc1ncnc2c1ncn2C1OC(CO)C(OP(=O)(O)O)C1O` (configuration not stated) [Adenosine-3-monophosphate], 8.88 min; for `OC1CCCCC1O` (configuration not stated) [1,2-Cyclohexanediol], 4.88 min.
Consider `O=CCC(O)C(O)CO` (configuration not stated) [2-Deoxyribose], for which the LC retention time stood at 1.42 min.
Regarding `CCC1(O)CC2CN(CCc3c([nH]c4ccccc34)C(C(=O)OC)(c3cc4c(cc3OC)N(C)C3C(O)(C(N)=O)C(O)C5(CC)C=CCN6CCC43C65)C2)C1` (configuration not stated) [Vindesine], the LC retention time turned out to be 5.76 min.
In the case of `CC(=O)OCC(=O)NCCCOc1cccc(CN2CCCCC2)c1` [Roxane], the LC retention time was 3.01 min.
For `Cc1ccnc2c1NC(=O)c1cccnc1N2C1CC1` [Viramune] the value was 1.16 min; for `CCOC(=O)OC1(C(=O)OCCl)CCC2C3CCC4=CC(=O)C=CC4(C)C3C(O)CC21C` (configuration not stated) [Loteprednol Etabonate], 0.97 min.
For `CCN1CCN(c2cc3c(cc2F)c(=O)c(C(=O)O)cn3C2CC2)CC1` [Enrofloxacin] the value was 3.31 min; for `NC(Cc1ccc(O)c(Cl)c1)C(=O)O` (configuration not stated) [3-Chlorotyrosine], 7.13 min.
For `N=C1NC(=O)C(c2ccccc2)O1` (configuration not stated) [Pemoline] the value was 1.39 min.
Regarding `CC(=O)OC1(C(C)=O)CCC2C3C=C(C)C4=CC(=O)CCC4(C)C3CCC21C` (configuration not stated) [Megestrol Acetate], the LC retention time was determined as 0.96 min.
For `N[C@H]1[C@@H](OP(=O)(O)O)O[C@H](CO)[C@H](O)[C@@H]1O` [alpha-Galactosamine-1-phosphate] the value was 7.06 min; for `O=C(O)C1CC(O)CN1C(=O)C1CCCN1` (configuration not stated) [Proline-hydroxyproline], 8.6 min.
Take `O=C1CCC(C(=O)N2CSCC2C(=O)O)N1` (configuration not stated) [Pidotimod]: the LC retention time stood at 7.3 min.
For `Nc1nc(=O)n(C2OC(CO)C(O)C2O)cc1CO` (configuration not stated) [5-Hydroxymethylcytidine] the value was 7.54 min.
For `O=C(c1ccc(F)cc1)C1CCN(CCn2c(=S)[nH]c3ccccc3c2=O)CC1` [Altanserin] the value was 2.64 min.
For `CC12CCC(=O)C=C1CCC1C2CCC2(C)C1CCC2(C)O` (configuration not stated) [Methyltestosterone] the value was 1.04 min; for `O=C(O)CNC(=O)C=Cc1ccccc1` [N-Cinnamoylglycine], 2.95 min; for `O=C(O)c1c[nH]c2ccccc12` [Indole-3-carboxylic acid], 1.41 min.
Consider `COc1ccc2[nH]cc(CCN)c2c1` [5-Methoxytryptamine], for which the LC retention time was 4.99 min.
For `O=C(O)Cc1cccc(O)c1` [3-Hydroxyphenylacetic acid] the value was 1.45 min.
For `NCCCCC(N)C(=O)NCC(=O)O` (configuration not stated) [Lys-Gly] the value was 9.84 min; for `COc1ccccc1N1CCN(CC(O)COc2cccc3ccccc23)CC1` (configuration not stated) [Naftopidil], 1.99 min; for `c1ccc2c3c([nH]c2c1)CNCC3` [Tryptoline], 4.9 min.
For `CCOC(=O)C1(c2ccccc2)CCN(CCC(C#N)(c2ccccc2)c2ccccc2)CC1` [Diphenoxylate] the value was 1.41 min; for `CC1CC2C3CCC4=CC(=O)C=CC4(C)C3(Cl)C(O)CC2(C)C1(O)C(=O)CO` (configuration not stated) [Beclomethasone], 1.26 min.
For `CC1CC2C3CCC4=CC(=O)C=CC4(C)C3(F)C(O)CC2(C)C1C(=O)CO` (configuration not stated) [Desoximetasone], the LC retention time came out at 1.13 min.
Regarding `COC1C(O)C(CO)OC1n1cnc2c(N)ncnc21` (configuration not stated) [2'-O-Methyladenosine], the LC retention time is 2.6 min.
For `CNC(C(=O)O)C(C)C` (configuration not stated) [N-Methylvaline] the value was 6.99 min; for `CN1C(=O)C(O)N=C(c2ccccc2)c2cc(Cl)ccc21` (configuration not stated) [Temazepam], 1.15 min; for `CNS(=O)(=O)Cc1ccc2[nH]cc(CCN(C)C)c2c1` [Sumatriptan], 4.31 min.
For `CCCCCCCCC=CCCCCCCCCCCCC(N)=O` [Erucamide] the value was 1.06 min.
For `CSCCC(NC(=O)CCC(N)C(=O)O)C(=O)O` (configuration not stated) [gamma-Glutamylmethionine] the value was 8.55 min; for `CN(C)CC(=O)O` [N,N-Dimethylglycine], 7.4 min; for `O=C(O)C=Cc1ccc(Cn2ccnc2)cc1` [Ozagrel], 2.99 min.
`CC(=O)CCCC(=O)O` [4-Acetylbutyric acid]: the LC retention time turned out to be 1.24 min.
As for `CC(=O)Nc1ccc2c(c1)Cc1ccccc1-2` [N-2-Fluorenylacetamide], the LC retention time amounted to 4.74 min.
`CCCCCCCCCCCCCCCCCC(=O)OCC(O)CO` (configuration not stated) [1-Monostearin]: the LC retention time was 0.99 min.
`CC(N)C(=O)NC(C(=O)O)C(C)C` (configuration not stated) [Ala-Val]: the LC retention time turned out to be 7.66 min.
For `COc1nc(C)nc(Cl)c1NC1=NCCN1` [Moxonidine], the LC retention time worked out at 3.28 min.
For `CCN(CC)CC1CCCCN1CC(=O)N1c2ccccc2C(=O)Nc2cccnc21` (configuration not stated) [Otenzepad] the value was 2.94 min; for `Cc1c2oc3c(C)ccc(C(=O)NC4C(=O)NC(C(C)C)C(=O)N5CCCC5C(=O)N(C)CC(=O)N(C)C(C(C)C)C(=O)OC4C)c3nc-2c(C(=O)NC2C(=O)NC(C(C)C)C(=O)N3CCCC3C(=O)N(C)CC(=O)N(C)C(C(C)C)C(=O)OC2C)c(N)c1=O` (configuration not stated) [Actinomycin D], 1.03 min; for `COC(=O)C1=C(C)NC(C)=C(C(=O)OC2CCCN(Cc3ccccc3)C2)C1c1cccc([N+](=O)[O-])c1` (configuration not stated) [Benidipine], 1.46 min.
For `CNc1ccccc1` [N-Methylaniline] the value was 1.06 min.
Turning to `NC(CCOC(=O)CCC(=O)O)C(=O)O` (configuration not stated) [O-Succinylhomoserine], the LC retention time worked out at 8.06 min.
For `CCOc1cc(N)c(Cl)cc1C(=O)NCC1CN(Cc2ccc(F)cc2)CCO1` (configuration not stated) [Mosapride] the value was 1.24 min; for `CC(CCC(=O)NCCS(=O)(=O)O)C1CCC2C3C(O)CC4CC(O)CCC4(C)C3CC(O)C12C` (configuration not stated) [Taurocholic acid], 6.12 min.
For `Clc1ccc(CON=C(Cn2ccnc2)c2ccc(Cl)cc2Cl)c(Cl)c1` [Oxiconazole] the value was 1.08 min; for `CC(Cc1ccccc1)(NC(=O)CN)c1ccccc1` (configuration not stated) [Remacemide], 4.41 min.
For `Cn1c(=O)c2c([nH]c(=O)n2C)n(C)c1=O` [1,3,7-Trimethyluric acid] the value was 1.83 min; for `CCC(=O)Nc1ccc(Cl)c(Cl)c1` [Propanil], 1.08 min.
As for `CN(C)CCCN1c2ccccc2CCc2ccc(Cl)cc21` [Clomipramine], the LC retention time amounted to 2.31 min.
For `O=C1CCC(C(=O)O)N1` (configuration not stated) [Pyroglutamic acid] the value was 8.71 min.
For `NC(=O)CCC(NC(=O)CCC(N)C(=O)O)C(=O)O` (configuration not stated) [gamma-Glutamylglutamine] the value was 9.55 min.
For `COc1ccc2nc(S(=O)Cc3ncc(C)c(OC)c3C)[nH]c2c1` (configuration not stated) [Esomeprazole] the value was 1.35 min.
For the compound `COc1ccc(C(=O)O)cc1` [P-Anisic acid], the LC retention time was determined as 1.3 min.
For `Cn1c(=O)c2c(ncn2C)n(C)c1=O` [Caffeine] the value was 1.21 min; for `O=CNC1CCCCC1` [N-Cyclohexylformamide], 1.2 min.
